Where “and” joins values, the source holds several entries; their conditions need not be identical. Equal values may be shown once.
Biological target: T1, hα9α10 nAChR (Homo sapiens, UniProt Q9GZZ6+Q9UGM1)
T1 construct: expressed in transfected cells; host or cells: Xenopus laevis oocytes injected with cRNA
Assay: cell-based
Assay type: cell-based

T1 sequence (Q9UGM1 26-479 limits assumed): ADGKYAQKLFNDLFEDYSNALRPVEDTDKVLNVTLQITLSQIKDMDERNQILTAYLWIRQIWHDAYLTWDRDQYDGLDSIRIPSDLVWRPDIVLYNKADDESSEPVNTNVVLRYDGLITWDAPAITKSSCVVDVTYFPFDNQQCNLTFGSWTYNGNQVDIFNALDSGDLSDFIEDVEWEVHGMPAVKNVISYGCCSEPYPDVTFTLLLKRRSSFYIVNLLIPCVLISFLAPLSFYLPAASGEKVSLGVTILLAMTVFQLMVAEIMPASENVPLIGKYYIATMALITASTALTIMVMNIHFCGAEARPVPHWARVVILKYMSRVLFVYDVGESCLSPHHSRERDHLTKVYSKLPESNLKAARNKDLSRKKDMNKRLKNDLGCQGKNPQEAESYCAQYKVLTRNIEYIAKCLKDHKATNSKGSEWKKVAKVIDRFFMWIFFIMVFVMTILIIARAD
T1 sequence (Q9GZZ6 25-450): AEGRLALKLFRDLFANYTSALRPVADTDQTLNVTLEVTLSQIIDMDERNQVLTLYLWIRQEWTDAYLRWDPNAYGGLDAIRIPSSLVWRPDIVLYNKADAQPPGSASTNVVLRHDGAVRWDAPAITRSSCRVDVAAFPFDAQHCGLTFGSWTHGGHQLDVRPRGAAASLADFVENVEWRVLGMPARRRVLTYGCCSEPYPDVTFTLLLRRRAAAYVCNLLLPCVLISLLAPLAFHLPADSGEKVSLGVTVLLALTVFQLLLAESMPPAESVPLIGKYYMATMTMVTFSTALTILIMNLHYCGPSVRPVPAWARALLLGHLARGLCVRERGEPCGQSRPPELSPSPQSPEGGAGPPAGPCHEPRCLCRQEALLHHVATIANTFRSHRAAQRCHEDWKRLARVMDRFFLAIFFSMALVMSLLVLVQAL

## CSCC[C@H](NC(=O)[C@H](CC(C)C)NC(=O)[C@H](C)N)C(=O)N[C@@H](CO)C(=O)N[C@H](C(=O)NCC(=O)N[C@H](C(=O)N[C@@H](CC(N)=O)C(=O)N[C@@H](Cc1ccc(O)cc1)C(=O)N[C@@H](CCCNC(=N)N)C(=O)N[C@@H](CC(C)C)C(=O)N[C@@H](CC(C)C)C(=O)N[C@@H](CCCCN)C(=O)N[C@H](C(=O)N[C@@H](CSCC(N)=O)C(=O)N[C@@H](CCCNC(=N)N)C(=O)NCC(=O)N[C@@H](CO)C(=O)NCC(=O)N[C@@H](CCCNC(=N)N)C(=O)N[C@@H](Cc1ccc(O)cc1)C(=O)N[C@@H](CSCC(N)=O)C(=O)N[C@@H](CCCNC(=N)N)C(=O)N[C@@H](CO)C(=O)N1CCC[C@H]1C(=O)N[C@@H](Cc1ccc(O)cc1)C(=O)O)[C@@H](C)O)[C@@H](C)O)[C@@H](C)O [GeXXVIIA-L-Nter]
  IC50: 222 ± 14 nM
  inhibition of ACh-evoked current, hα9α10 nAChR: > 90% and ~ 55%
